Assay results taken from BindingDB's records for doi:10.1074/jbc.M703586200 (University of Minnesota, 2007).
pIC50: −log10 of the molar value.

Experiments:
[1] = biological target: T1, Tissue factor (Homo sapiens, UniProt P13726); assay: Inhibition of TNF-alpha-induced tissue factor activity in HUVEC preincubated for 4 hrs assessed after 4 hrs of TNFalpha challenge by one stage clotting assay
[2] = biological target: T1, Tissue factor; assay: Inhibition of LPS-induced tissue factor activity in HUVEC preincubated for 4 hrs assessed after 4 hrs of LPS challenge by one stage clotting assay

T1 sequence (P13726 whole entry): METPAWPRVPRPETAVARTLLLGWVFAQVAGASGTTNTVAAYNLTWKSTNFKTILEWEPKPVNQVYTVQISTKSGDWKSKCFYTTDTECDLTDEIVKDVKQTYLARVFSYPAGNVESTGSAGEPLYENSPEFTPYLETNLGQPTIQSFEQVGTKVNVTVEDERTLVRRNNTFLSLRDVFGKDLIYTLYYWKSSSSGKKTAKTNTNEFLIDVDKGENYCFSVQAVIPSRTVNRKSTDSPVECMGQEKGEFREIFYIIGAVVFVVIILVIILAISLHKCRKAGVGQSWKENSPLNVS

pIC50 [1]	pIC50 [2]	SMILES
7.52	–	CC(=CC(C)C=CC(=O)NO)C(=O)c1ccc(N(C)C)cc1 (centres undefined)
5.00	5.22	Nc1ccccc1NC(=O)c1ccc(CNC(=O)OCc2cccnc2)cc1 [benzamide-type inhibitor, 3]
2.70	3.00	CCCC(=O)O
2.70	2.82	CCCC(CCC)C(=O)O [Valproinsaeure]

SMILES	pIC50 [1]	pIC50 [2]
CCC(=O)CCCCC[C@@H]1NC(=O)[C@H]2CCCCN2C(=O)[C@H]([C@@H](C)CC)NC(=O)[C@H](Cc2cn(OC)c3ccccc23)NC1=O [(6S,9S,12S,14aR)-6-((S)-sec-Butyl)-9-(1-methoxy-1H-indol-3-ylmethyl)-12-(6-oxo-octyl)-decahydro-4a,7,10,13-tetraaza-benzocyclododecene-5,8,11,14-tetraone]	6.70	6.82
